Several values for one entry are separate records, joined by “and”; a condition that tells them apart may be missing. Equal values may be shown once.

In one test the test system is mouse melan-a cell line. As to the kind of experiment: Microplate culture and sulforhodamine B (SRB) proliferation assay, melan-a melanocytes. The test is classed as cell-based. As for the experimental part:
A supplemental growth medium of 10% foetal bovine serum (FBS) was added to the […] microtiter plates. The plates were incubated at 37° C. in a 10% CO2, 90% air humidified atmosphere for 4 days. At the end of the incubation, an SRB assay was performed. Briefly, cells attached to the bottom of the plate were fixed by addition of cold trichloroacetic acid (TCA, 4° C., Aldrich, Dorset, UK) on the top of the growth medium (final TCA 20% w/v). The plate was placed at 4° C. for 1 hour before being gently washed five times with tap water. It was allowed to dry in air, or aided with a hair dryer to speed up the drying process, then 50 μl of […] SRB dissolved in 1% acetic acid in water was added to each well for 30 min. At the end of the staining period, unbound SRB was removed by washing 4 times with 1% acetic acid. The plate was air dried again, and 150 μl of 10 mM aqueous Tris base (Sigma-Aldrich Co. Ltd, Irvine, UK) was added into each well to solubilize the cell-bound dye. […] A control assay was carried out on cells incubated without test compound. There were 2 or 3 series of experiments, each of which consisted of six replicate experiments.
Various compounds of formula (1) were synthesised and tested for melanocyte (mouse melan-a) proliferant activity in-vitro. Cells were incubated with the test compound for 4 days, as described above.
Percentage cell growth was obtained with a given compound calculated as (optical density in the presence of the compound/control optical density)×100.
Melan-a cell proliferant activity for tested compounds was compared with that obtained with piperine. […] All figures are given with Standard Error of the Mean.

Another test concerns melan-a cells. As to the kind of experiment: Dendricity of melan-a cells by observation under microscope. The test is classed as cell-based, mouse. Set-up: key to Dendricity of RV-A08: +++: highly dendiitic; ++: moderately dendritic; +: weakly dendritic; key to Dentricity of RV-A07 / Dendricity of RV-A09 / Dendricity of RV-A10 / Dendricity: +++: highly dendritic; ++: moderately dendritic; +: weakly dendritic; −: no effect. An excerpt: Effect on dendricity of melan-a cells by the test compounds was by observation under microscope. Dendricity is relevant to vitiligo since normal skin melanocytes have dendrites, but in vitiligo the melanocytes seem to lose these before they disappear from the patches.

On to “7-(3,4-methylenedioxy phenyl)-heptanoic acid piperidineamide [RV-C05]”, for which the Percentage cell growth was 118 ± 1% in the test on mouse melan-a cell line (1 μM, 4 days, ± SEM); 160 ± 5**♦ % in the test with mouse melan-a cell line (10 μM, 4 days, ± SEM); 158 ± 19 % with mouse melan-a cell line (50 μM, 4 days, ± SEM); 113 ± 15% in the test with mouse melan-a cell line (100 μM, 4 days, ± SEM). In addition, the Dendricity result in the test on melan-a cells (1 μM (tables RV-C04, RV-C05)) is reported as “+”; in the test on melan-a cells (10 μM (tables RV-C04, RV-C05)), “++”; with melan-a cells (50 μM (tables RV-C04, RV-C05)), “++”; in the test on melan-a cells (100 μM (tables RV-C04, RV-C05)), “+”.

Take `O=C(/C=C/C=C/c1ccc2c(c1)OCO2)N1CCCCC1` [Piperine, reference compound]: the Percentage cell growth with mouse melan-a cell line (1 μM, 4 days, ± SEM) was 147 ± 11**♦ % and 211 ± 16**♦ % and 216 ± 14**♦ % and 221 ± 17**♦ % and 236 ± 30 % and 191 ± 12**♦ % and 161 ± 13 %; with mouse melan-a cell line (10 μM, 4 days, ± SEM), 192 ± 13**♦ % and 216 ± 33 % and 236 ± 17 % and 263 ± 16 % and 302 ± 17 % and 216 ± 18 % and 192 ± 2**♦ %; in the test with mouse melan-a cell line (25 μM, 4 days, ± SEM), 167 ± 19 %. Moreover, in the test on mouse melan-a cell line (10 μM piperine run alongside the test compound, 4 days, ± SEM), the “Percentage cell growth (Repeated experiments) Piperine” value was 236 ± 17% and 263 + 16** % and 302 ± 17 % and 210 ± 65% and 170 ± 22% and 155 ± 19% and 216 ± 33 %.

As to `O=C(/C=C/C=C/c1ccc2c(c1)OCO2)N1CCOCC1` [RV-A02, 5-E,E-piperinoyl morpholine], the Percentage cell growth with mouse melan-a cell line (1 μM, 4 days, ± SEM) is on record as 125 ± 10%; in the test with mouse melan-a cell line (10 μM, 4 days, ± SEM), 167 ± 17 %; in the test on mouse melan-a cell line (25 μM, 4 days, ± SEM), 171 ± 8 %; in the test on mouse melan-a cell line (50 μM, 4 days, ± SEM) it was 168 ± 12**□ %. Besides, in the test with mouse melan-a cell line (10 μM), the Stimulant activity entry is reported as “Positive”. Moreover, the “Percentage cell growth (Repeated experiments) Test cpd.” value in the test on mouse melan-a cell line (10 μM test compound, 4 days, OD vs control x100, ± SEM) was 156 ± 58% and 187 ± 40% and 153 ± 19%.

For the molecule `CNC(=O)/C=C/C=C/c1ccc2c(c1)OCO2` [RV-A07, 5-E,E-piperinoylmethylamine], the Percentage cell growth was determined as 140 ± 12 % in the test with mouse melan-a cell line (1 μM, 4 days, ± SEM); 170 ± 24 % in the test with mouse melan-a cell line (10 μM, 4 days, ± SEM); 71 ± 5% in the test with mouse melan-a cell line (50 μM, 4 days, ± SEM); 46 ± 2% in the test on mouse melan-a cell line (100 μM, 4 days, ± SEM). The Stimulant activity entry with mouse melan-a cell line (10 μM) is “Positive”. Besides, the “Dentricity of RV-A07” value in the test with melan-a cells (10 μM) is “++”.

Regarding `CCNC(=O)/C=C/C=C/c1ccc2c(c1)OCO2` [RV-A08], the Percentage cell growth in the test on mouse melan-a cell line (1 μM, 4 days, ± SEM) was 139 ± 27 %; in the test with mouse melan-a cell line (10 μM, 4 days, ± SEM), 200 ± 14 %; in the test with mouse melan-a cell line (50 μM, 4 days, ± SEM) it was 81 ± 12%; in the test with mouse melan-a cell line (100 μM, 4 days, ± SEM), 62 ± 13%. For the same molecule, the Stimulant activity entry with mouse melan-a cell line (10 μM) was “Positive”. Also, in the test with melan-a cells (10 μM), the “Dendricity of RV-A08” value is reported as “+++”.

In the case of `CC(C)NC(=O)/C=C/C=C/c1ccc2c(c1)OCO2` [RV-A09, 5-E,E-piperinoylisopropylamine], the Percentage cell growth in the test on mouse melan-a cell line (1 μM, 4 days, ± SEM) amounted to 187 ± 15 %; in the test with mouse melan-a cell line (10 μM, 4 days, ± SEM), 224 ± 19 %; with mouse melan-a cell line (50 μM, 4 days, ± SEM) it was 85 ± 5%; in the test on mouse melan-a cell line (100 μM, 4 days, ± SEM), 42 ± 6%. In the test on mouse melan-a cell line (10 μM), the Stimulant activity result was “Positive”. The “Dendricity of RV-A09” value with melan-a cells (10 μM) is “+++”.

As to `O=C(/C=C/C=C/c1ccc2c(c1)OCO2)NC1CCCCC1` [RV-A10, 5-E,E-piperinoyl cyclohexylamine], the Percentage cell growth with mouse melan-a cell line (1 μM, 4 days, ± SEM) is given as 301 ± 20**□ %; with mouse melan-a cell line (10 μM, 4 days, ± SEM), 308 ± 29 %; with mouse melan-a cell line (50 μM, 4 days, ± SEM), 155 ± 22**□ %; with mouse melan-a cell line (100 μM, 4 days, ± SEM), 100 ± 13%. Further, the Stimulant activity result in the test with mouse melan-a cell line (10 μM) is given as “Positive”. Besides, the figures for the “Dendricity of RV-A10” value in the test on melan-a cells (10 μM) and in the test on melan-a cells (50 μM) were “+++” and “++”, respectively.

For the molecule `O=C(CCCCc1ccc2c(c1)OCO2)NC1CCCCC1` [RV-C04, 5-(3,4-methylenedioxyphenyl)-pentanoic acid cyclohexylamide], the Percentage cell growth with mouse melan-a cell line (1 μM, 4 days, ± SEM) was determined as 129 ± 6 %; in the test on mouse melan-a cell line (10 μM, 4 days, ± SEM), 192 ± 6 %; in the test with mouse melan-a cell line (50 μM, 4 days, ± SEM) it was 192 ± 10 %; in the test on mouse melan-a cell line (100 μM, 4 days, ± SEM) it was 191 ± 12 %. Also, the Dendricity entry is “+” in the test with melan-a cells (1 μM (tables RV-C04, RV-C05)); “+++” in the test with melan-a cells (10 μM (tables RV-C04, RV-C05)); “+++” in the test on melan-a cells (50 μM (tables RV-C04, RV-C05)); “+++” with melan-a cells (100 μM (tables RV-C04, RV-C05)).

Source of the values: patent publication US7361685B2, “Compounds for use in the treatment of skin conditions” (Oregon Health & Science University, priority 2001, dated 2008).
